Assay results published in ChEMBL document CHEMBL1201862, “PubChem BioAssay data set” (2004).
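Protocol summary: plate cells (96-well), add compound at 5 concentrations, incubate 48 h, interpolate endpoints linearly. Here, GI50 denotes the concentration required for 50% inhibition of growth.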 Calls of active or inactive are those of the source. No stated cut-off is given here; in the data, active = GI50 up to about 1.1 µM and inactive = higher.

Legend:
Experiment in all cases: NCI-60 cell line screen, 48 h
HCT-116 = test system: HCT-116
DU-145 = test system: DU-145
HCT-15 = test system: HCT-15
HCC 2998 = test system: HCC 2998
T47D = test system: T47D
M19-MEL = test system: M19-MEL
SF-539 = test system: SF-539
SK-MEL-5 = test system: SK-MEL-5
DLD-1 = test system: DLD-1
EKVX = test system: EKVX
DMS-114 = test system: DMS-114
RPMI-8226 = test system: RPMI-8226
MCF7 = test system: MCF7
RXF 393 = test system: RXF 393
SN12C = test system: SN12C
OVCAR-5 = test system: OVCAR-5
786-0 = test system: 786-0
NCI-H226 = test system: NCI-H226
PC-3 = test system: PC-3
TK-10 = test system: TK-10

SMILES	GI50 (HCT-116)	GI50 (DU-145)	GI50 (HCT-15)	GI50 (HCC 2998)	GI50 (T47D)	GI50 (M19-MEL)	GI50 (SF-539)	GI50 (SK-MEL-5)	GI50 (DLD-1)	GI50 (EKVX)	GI50 (DMS-114)	GI50 (RPMI-8226)	GI50 (MCF7)	GI50 (RXF 393)	GI50 (SN12C)	GI50 (OVCAR-5)	GI50 (786-0)	GI50 (NCI-H226)	GI50 (PC-3)	GI50 (TK-10)
O=c1cc(-c2ccccc2)oc2ccc(Cl)cc12 [6-CHLOROFLAVONE]	46.6 µM (inactive)	> 56.6 µM (inactive)	> 100 µM	> 56.4 µM (inactive)	19.6 µM (inactive)	> 100 µM (inactive)	37.7 µM (inactive)	> 100 µM (inactive)	> 100 µM (inactive)	17.4 µM (inactive)	49.9 µM (inactive)	> 73.5 µM (inactive)	20.7 µM (inactive)	31.4 µM (inactive)	> 69.8 µM (inactive)	> 100 µM (inactive)	33.3 µM (inactive)	> 84.7 µM (inactive)	> 52.5 µM (inactive)	50 µM (inactive)
CCc1ccc(NC(=O)NC(=O)c2ccccc2[N+](=O)[O-])cc1Oc1ncc(Cl)cn1	0.0331 µM (active)	0.0578 µM (active)	0.0141 µM	0.027 µM (active)		< 0.0275 µM (active)	0.0137 µM (active)	< 0.0139 µM (active)	< 0.0192 µM (active)	7.06 µM (inactive)	0.0174 µM (active)	< 0.0159 µM (active)	< 0.01 µM (active)	< 0.01 µM (active)	0.0308 µM (active)	< 0.0301 µM (active)	0.0158 µM (active)	0.0151 µM (active)	< 0.01 µM (active)	1.96 µM (inactive)
OCC(O)CNc1ccnc2cc(Cl)ccc12 (stereo not given)	> 100 µM (inactive)		> 100 µM	> 100 µM (inactive)		> 100 µM (inactive)	> 100 µM (inactive)	> 100 µM (inactive)	> 100 µM (inactive)	> 100 µM (inactive)	> 100 µM (inactive)	> 100 µM (inactive)		> 100 µM (inactive)	> 100 µM (inactive)	> 100 µM (inactive)	> 100 µM (inactive)	> 100 µM (inactive)		> 100 µM (inactive)
